Entries after “also recorded” stand apart in the source; their conditions may differ. Where two headings read alike, the source gives them in different places.
Experiments:
GI-101A tumors [1] = system: GI-101A tumors; design: species or system nude mice; settings: mouse, in vivo
PANC-1 tumors [2] = assay type: in vivo, nude mice
A549 tumors = system: A549 tumors; design: species or system nude mice; settings: mouse, in vivo
PANC-1 tumors [3] = system: PANC-1 tumors; design: species or system nude mice; settings: mouse, in vivo
GLV-1h73 = assay type: cell-based, vaccinia virus
GLV-1h71 = assay type: cell-based, vaccinia virus
GI-101A tumors [4] = settings: mouse, in vivo
GLV-1h68 = assay type: cell-based, vaccinia virus
GLV-1h74 = assay type: cell-based, vaccinia virus

In the case of `N.N.[Cl][Pt][Cl]` [Cisplatin, cis-diamminedichloroplatinum], the “Effect on tumor growth” value (GI-101A tumors [1]) is reported as “decreased the rate of tumor growth, but did not shrink tumors”, the “Effect on tumor growth” value (PANC-1 tumors [2]; PANC-1) is reported as “unable to arrest tumor growth” and the Median tumor volume (PANC-1 tumors [2]; day 36 post-implantation) is reported as 170.2 mm^3. It also gave a Median tumor volume (PANC-1 tumors [2]; day 46) of 296.6 mm^3, a Median tumor volume (PANC-1 tumors [2]; day 52) of 254.95 mm^3 and a Median tumor volume (PANC-1 tumors [2]; day 57) of 326.2 mm^3. The Median tumor volume (PANC-1 tumors [2]; day 63) was 460.3 mm^3, the Median tumor volume (PANC-1 tumors [2]; day 72) was 663.4 mm^3 and the Median tumor volume (PANC-1 tumors [2]; day 79) was 1022.0 mm^3. For the same compound, the Median tumor volume (PANC-1 tumors [2]; day 86) was 1718.3 mm^3, the Median tumor volume (PANC-1 tumors [2]; day 94) was 2520.4 mm^3 and the Median tumor volume (PANC-1 tumors [2]; day 100) was 3254.1 mm^3.

`COc1cccc2c1C(=O)c1c(O)c3c(c(O)c1C2=O)C[C@@](O)(C(=O)CO)C[C@@H]3O[C@H]1C[C@H](N)[C@H](O)[C@H](C)O1` [Doxorubicin, doxorubicin] was tested, and the “Effect on tumor growth” value (GI-101A tumors [1]) was “did not have any effect on the rate of tumor growth”.

With `Nc1ccn([C@@H]2O[C@H](CO)[C@@H](O)C2(F)F)c(=O)n1` [Gemcitabine] the “Effect on tumor growth” value (A549 tumors) was “increased tumor growth” and the “Effect on tumor growth” value (PANC-1 tumors [3]) was “moderately decreased tumor growth”.

`Nc1ccn(C[C@@H](CO)OCP(=O)(O)O)c(=O)n1` [cidofovir] was tested, and the “Number and size of plaques of GLV-1h73” value (GLV-1h73) was “significantly reduced”, the “Plaque formation by GLV-1h73” value (GLV-1h73) was “smaller plaques” and the “Size or number of plaques of GLV-1h73 vs control” value (GLV-1h73) was “no significant differences”. The “Plaque formation by GLV-1h71” value (GLV-1h71) was “smaller plaques; also recorded: almost completely inhibited”, the “Size or number of plaques of GLV-1h71 vs control” value (GLV-1h71) was “no significant differences” and the “Interference with tumor therapy by the virus” value (GI-101A tumors [4]) was “did not significantly interfere”. For the same compound, the “Survival time of GLV-1h74 injected mice” value (GI-101A tumors [4]) was “significantly extended”, the “Plaque formation by GLV-1h68” value (GLV-1h68) was “smaller plaques; also recorded: almost completely inhibited” and the “Size or number of plaques of GLV-1h68 vs control” value (GLV-1h68) was “no significant differences”. The “Number and size of plaques of GLV-1h74” value (GLV-1h74) was “significantly reduced”, the “Plaque formation by GLV-1h74” value (GLV-1h74) was “smaller plaques” and the “Size or number of plaques of GLV-1h74 vs control” value (GLV-1h74) was “no significant differences”.

Reference: patent US10584317B2 (priority 2006, dated 2020)
